Where “and” joins values, the source holds several entries; their conditions need not be identical. Equal entries are not always repeated. Where two headings read alike, the source gives them in different places.
Assays:
rat adjuvant arthritis = assay: Action on rat adjuvant arthritis (paw swelling inhibition); assay type: in vivo, male Lewis rats; conditions: mean of 4 rats (standard error); for Swelling inhibition (%), Primary inflammation (inoculated paw): measured 3 days after adjuvant inoculation; for Swelling inhibition (%), Secondary inflammation (uninoculated paw): measured 17 days after adjuvant inoculation
Method: Seven-week old male Lewis rats (4 rats in one group) were injected under the plantar skin of the right hind paw with 0.6 mg/0.1 ml of a suspension of human tubercle bacillus, killed Mycobacterium tuberculosis H37 RA in liquid paraffin, thereby inducing adjuvant arthritis. The volume of the adjuvant-inoculated paw (primary inflammation) was measured 3 days after the inoculation of adjuvant and the volume of the adjuvant-uninoculated paw (secondary inflammation) 17 days after the inoculation of adjuvant. The swelling rate of each paw was calculated with respect to the volume of the paw before the inoculation of adjuvant. Ten mg of the instant compound was suspended in 10 ml of a 0.5% by weight aqueous solution of carboxymethyl cellulose and the oral administration of the obtained suspension began on day of adjuvant inoculating and continued for 17 days in a dose of 10 mg/kg one time per day.
The swelling rate and inhibition rate were calculated according to the following formulae: [formula]
Each value is an average value for 4 rats in one group and the value in parentheses is standard error.

stress ulcer in mice = assay type: in vivo; conditions: for Ulcer index: 15 minutes before 7 h constraint under water immersion, average of sum of ulcer lengths
Method: Six-week old male ddy […] (10 rats in one group) were completely fasted overnight and then loaded with constraint under water immersion for 7 hours. The rats were observed under a stereoscopic microscope to examine production of gastric ulcer. Sum (mm) of lengths of ulcers for each animal was taken as ulcer index. Ten mg, 30 mg or 100 mg of the instant compound was mixed with 0.15 ml of Tween 80 and suspended into a 0.5% by weight aqueous solution of gum arabic to give a total 10 ml of a suspension. The suspension was orally administered 15 minutes before loading of the constraint under water immersion. Indomethacin was used as a comparative drug.
The test results are shown in Table 3 in terms of an average value of ulcer indexes.

[1] = target: T1, cyclooxygenase of sheep seminal vesicle gland (Ovis aries, UniProt P05979); assay: Action on activity of cyclooxygenase of sheep seminal vesicle gland; assay type: biochemical
T1 construct: purchased CAYMAN CO., LTD; host or cells: sheep seminal vesicle gland
T1 sequence (P05979 25-600): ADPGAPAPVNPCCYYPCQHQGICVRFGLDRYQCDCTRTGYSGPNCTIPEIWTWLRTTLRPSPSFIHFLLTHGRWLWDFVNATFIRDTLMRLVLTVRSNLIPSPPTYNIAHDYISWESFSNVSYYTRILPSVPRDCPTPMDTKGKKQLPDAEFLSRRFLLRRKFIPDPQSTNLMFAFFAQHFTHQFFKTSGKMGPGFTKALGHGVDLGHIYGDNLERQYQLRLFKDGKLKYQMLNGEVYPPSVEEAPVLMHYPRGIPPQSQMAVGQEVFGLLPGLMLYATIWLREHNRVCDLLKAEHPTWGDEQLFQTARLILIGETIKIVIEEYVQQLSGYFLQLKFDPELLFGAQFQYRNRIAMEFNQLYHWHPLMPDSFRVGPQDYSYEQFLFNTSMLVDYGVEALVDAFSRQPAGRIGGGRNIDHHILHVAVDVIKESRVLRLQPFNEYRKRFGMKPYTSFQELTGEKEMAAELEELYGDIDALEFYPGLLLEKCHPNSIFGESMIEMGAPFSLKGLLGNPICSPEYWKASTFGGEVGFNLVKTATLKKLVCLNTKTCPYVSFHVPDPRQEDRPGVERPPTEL
Method: Two hundred and fifty μl of an enzyme solution containing each test compound [5 mM triptophan, 200 nM hematin, 0.04% by weight Tween 20, 10 units of cyclooxygenase of sheep seminal vesicle gland (made by CAYMAN CO., LTD.), 2 μM [1-^14 C] arachidonic acid, 0.1 M Tris-hydrochloric acid buffer solution (pH: 8.0)], underwent a reaction at 25° C. for 6 minutes. The reaction was terminated by addition of 0.5 ml of a 0.2 M citric acid buffer solution (pH 3.0). [1-^14 C]arachidonic acid was extracted with ethyl acetate and separated by a thin layer chromatography. The radioactivity of the resulting arachidonic acid fraction was determined with a scintillation counter and the inhibition was calculated.
The inhibition value was calculated according to the following formula: [formula]

[2] = 10 mg/kg oral once daily for 17 days
[3] = comparative drug, 1 mg/kg, 1 mg/kg
[4] = comparative drug, 1 mg/kg, listed as indomethacin, 1 mg/kg

| Compound | Swelling inhibition (%), Primary inflammation (inoculated paw) (rat adjuvant arthritis; [2]) | Swelling inhibition (%), Secondary inflammation (uninoculated paw) (rat adjuvant arthritis; [2]) | other results |
| --- | --- | --- | --- |
| CS(=O)(=O)c1ccc(-c2cc(C(=N)Nc3cccc(Cl)c3)sc2-c2ccc(F)cc2)cc1 [Example 1, 5-[N^1-(3-chlorophenyl)amidino]-2-(4-fluorophenyl)-3-(4-methylsulfonylphenyl)thiophene] | 31.5% and 31.5 (0.91) % | 48.9% and 48.9 (3.58) % | Ulcer index (stress ulcer in mice; 10 mg/kg oral): 6.5 mm; Ulcer index (stress ulcer in mice; 30 mg/kg oral): 10.8 mm; Ulcer index (stress ulcer in mice; 100 mg/kg oral): 9.6 mm; Ulcer index / ulcer-exacerbating action (in words) (stress ulcer in mice; compared with solvent-given group, up to 100 mg/kg (Example 1), 1 and 3 mg/kg (indomethacin)): no evident difference in ulcer index was observed even in the group given 100 mg/kg; inhibition at 100 µM ([1]; 10^-4 M, pH 8.0, 25° C., 6 minutes, average of two experiments): -2.2%; inhibition at 10 µM ([1]; 10^-5 M, pH 8.0, 25° C., 6 minutes, average of two experiments): 1.3%; inhibition at 1 µM ([1]; 10^-6 M, pH 8.0, 25° C., 6 minutes, average of two experiments): 3.4%; Inhibition of cyclooxygenase activity (in words) ([1]; even in 10^-4 M added group): did not inhibit the activity of cyclooxygenase |
| CS(=O)(=O)c1ccc(-c2cc(C(=N)Nc3ccccc3)sc2-c2ccc(F)cc2)cc1 [Example 2] | 22.6 (5.24) % | 28.4 (2.55) % | – |
| CS(=O)(=O)c1ccc(-c2cc(C(=N)Nc3ccccc3Cl)sc2-c2ccc(F)cc2)cc1 [Example 3] | 22.1 (4.94) % | 32.2 (10.8) % | – |
| CS(=O)(=O)c1ccc(-c2cc(C(=N)Nc3ccc(Cl)cc3)sc2-c2ccc(F)cc2)cc1 [Example 4] | 32.7 (7.40) % | 57.4 (8.54) % | – |
| CS(=O)(=O)c1ccc(-c2cc(C(=N)Nc3cccc(F)c3)sc2-c2ccc(F)cc2)cc1 [Example 5] | 23.5 (4.75) % | 34.7 (4.26) % | – |
| CS(=O)(=O)c1ccc(-c2cc(C(=N)Nc3ccc(F)cc3)sc2-c2ccc(F)cc2)cc1 [Example 6] | 26.3 (4.37) % | 57.2 (5.34) % | – |
| CS(=O)(=O)c1ccc(-c2cc(C(=N)Nc3ccc(Br)cc3)sc2-c2ccc(F)cc2)cc1 [Example 7] | 36.1 (6.36) % | 48.8 (3.20) % | – |
| COc1ccc(NC(=N)c2cc(-c3ccc(S(C)(=O)=O)cc3)c(-c3ccc(F)cc3)s2)cc1 [Example 11] | 35.0 (10.1) % | 37.1 (4.42) % | – |
| CS(=O)(=O)c1ccc(-c2cc(C(=N)Nc3ccc(F)cc3F)sc2-c2ccc(F)cc2)cc1 [Example 12] | 18.2 (2.73) % | 24.9 (10.2) % | – |
| CS(=O)(=O)c1ccc(-c2cc(C(=N)Nc3ccc(Cl)cc3Cl)sc2-c2ccc(F)cc2)cc1 [Example 13] | 16.7 (3.25) % | 24.2 (5.05) % | – |
| CS(=O)(=O)c1ccc(-c2cc(C(=N)Nc3ccc(Cl)c(Cl)c3)sc2-c2ccc(F)cc2)cc1 [Example 17] | 27.4 (7.02) % | 44.1 (3.83) % | – |
| CS(=O)(=O)c1ccc(-c2cc(C(=N)Nc3ccc(F)c(Cl)c3)sc2-c2ccc(F)cc2)cc1 [Example 18] | 27.9 (3.09) % | 48.9 (9.69) % | – |
| COc1ccc2c(c1)c(CC(=O)O)c(C)n2C(=O)c1ccc(Cl)cc1 [Indomethacin, indomethacin, reference compound] | – | – | Swelling inhibition (%), Primary inflammation (inoculated paw) (rat adjuvant arthritis; [3]): 28.3 (4.10) %; Swelling inhibition (%), Primary inflammation (inoculated paw) (rat adjuvant arthritis; [4]): 28.8%; Swelling inhibition (%), Secondary inflammation (uninoculated paw) (rat adjuvant arthritis; [3]): 43.6 (9.42) %; Swelling inhibition (%), Secondary inflammation (uninoculated paw) (rat adjuvant arthritis; [4]): 43.6%; Inhibition of cyclooxygenase activity (in words) ([1]; 10^-6 M): completely inhibited the activity; inhibition at 0.1 µM ([1]; 10^-7 M, pH 8.0, 25° C., 6 minutes, average of two experiments): 66.2%; Concentrations at which the activity of cyclooxygenase was inhibited ([1]; dependent on dosage): ≥ 10^-8 M |
